What is called EC50 is the concentration that produces a half-maximal response.

Assay type in all cases: cell-based
In test [1] the test system is PPC-1 cells. Put plainly: PPC-1 cell viability (MTT) with or without CH-11 anti-FAS antibody. As to conditions: for direct toxicity: compound alone, concentrations up to 80 μM. As to the method:
High throughput screening. Screens were performed using a fully integrated, programmable robotic liquid handling system (Biomek® FX, Beckman-Coulter Inc., Fullerton, Calif.), with integrated plate reader (LJL analyst HT 96-384, Sunnyvale, Calif.) and environmentally controlled plate carousel set at 37° C. and 5% CO2:95% air. PPC-1 cells (1×10^4) were seeded overnight into 96 well, flat-bottom plates (Costar, Cambridge, Mass.) in 100 μL of medium containing 2.5% FCS. The next day, aliquots from the 50,000 compound Diversa library were added at a final concentration of 7.5 μg/mL (about 25 μM) in a final concentration of 0.5% (v:v) dimethylsulfoxide (DMSO). CH-11 antibody (100 ng/mL) was then added, and the cells were incubated for 24 hours before assessing cell viability by a 3-(4,5-Dimethylthiazol-2-yl)-2,5-diphenyltetrazolium Bromide (MTT) dye reduction assay (Sigma).
Cell death assays. Cell viability was measured by MTT and MTS assays, essentially as described in Schimmer et al. (Cancer Cell 5:25-35, 2004). Absorbance readings were plotted against a standard curve to derive the corresponding cell number, and cell viability was expressed as a percentage relative to untreated cells. Apoptosis was measured by flow cytometric analysis of Annexin V surface expression after staining cells with FITC-anti-Annexin V and propidium iodide (PI) (Biovision, Mountain View, Calif.), as described in Pedersen et al. (Blood 100:2965-72, 2002).
Statistics. Cytotoxicity induced by compounds used in combination with conventional agents (e.g., CH-11, TRAIL, VP-16 and staurosporine) was evaluated for evidence of synergy toxicity by comparing the slopes of the dose-response curves. If the combination of the potential sensitizing compound with the conventional agent increased the slope of the dose-response curve compared to the slopes of either the sensitizer or the conventional agent alone, then the interaction was considered synergistic. […] Statistical significance was defined as a p<0.01, using two-sided tests. Synergy was confirmed by performing multiple drug dose-effect calculations using the Median Effect methods as described in Chou (“The Median-Effect Principle and the Combination Index for Quantitation of Synergism and Antagonism.” In: D. C. Rideout and T. C. Chou (eds.), Synergism and Antagonism in Chemotherapy, pp. 61-102: Academic Press, Inc., 1991).
Identification of small molecule FAS sensitizers. Resistance to death receptor ligands may permit malignant cells to escape immune surveillance and limit the clinical efficacy of recombinant death receptor ligands such as TRAIL. To identify small molecules that restore sensitivity to death receptor ligands, a cell-based high throughput screen was performed using the FAS and TRAIL-resistant prostate cancer cell line PPC-1 and a commercially available 50,000 compound library. The screens were performed in 96 well plates, to which compounds were added at 7.5 μg/ml (about 25 μM), followed by agonistic anti-FAS monoclonal antibody CH-11 (100 ng/mL). Cell viability was measured 24 hours later by MTT assay. […] The coefficient of variation (CV) for PPC-1 cells treated with CH-11 alone was determined to be 5%, based on 90 replicate determinations. A 50% decrease in cell viability was used as a cut-off for scoring hits.
From the primary screen of 50,000 compounds, 313 reproducible hits were obtained. To determine whether any of the 313 compounds were toxic molecules as opposed to FAS-sensitizers, the 313 compounds were evaluated in secondary screens where PPC-1 cells were treated with increasing concentrations of the compounds in the presence or absence of CH-11 antibody. Through these secondary screens, nine sensitizers were identified that increased CH-11-mediated killing above the cell death produced by treatment of the cells with the compound alone (Table 1). […]

Test [2] concerns ten tumor cell lines. Put plainly: CH-11 killing of a spectrum of malignant cell lines. As to conditions: increasing concentrations with or without CH-11. On the procedure:
Effects of small molecule sensitizers on CH-11 killing of a spectrum of malignant cell lines. To assess the spectrum of activity of the small molecule FAS sensitizers, an additional nine malignant cell lines derived from breast, ovarian, and prostate carcinomas were treated with increasing concentrations of the sensitizers in the presence or absence of CH-11. […] None of the other compounds sensitized more than four of ten tumor lines to CH-11. […] Also, all of the non-responding cell lines, except Colo 205, had detectable levels of FLIP by immunoblotting. Thus, the failure of 609411 and 5809354 to sensitize these tumor lines to anti-FAS antibody was not due to either lack of FAS expression or absence of FLIP, with rare exception.

Test [3] concerns OVCAR-3 and T47D tumor lines. Put plainly: Extrinsic versus intrinsic pathway stimuli in further tumor lines.
For test [4], the system named is PPC-1, OVCAR-3, T47D, MDA-MB-468 and DU 145 cells. Put plainly: FLIP siRNA knock-down and CH-11 killing. To be noted: PPC-1 cells transfected with FLIP siRNA. On the procedure: Transfection of siRNA oligonucleotides. Double-stranded SMARTPOOL siRNA oligonucleotides targeting c-FLIP mRNA and double-stranded firefly luciferase control siRNA (Dharmacon Research, Lafayette, Colo.) (10 nM) were transfected into cells with Lipofectamine according to the manufacturer's instructions.
To test the functional importance of decreases in FLIP by 5809354, it was determined whether knocking down FLIP could recapitulate the activity of the molecule and abrogate 5809354's ability to sensitize cells to CH-11. PPC-1 cells were transfected with double stranded siRNA that targeted FLIP or luciferase as a control. At 24 hours after transfection, cells were treated with increasing concentrations of 5809354 with or without CH-11.

Entries after “also recorded” stand apart in the source; their conditions may differ.

Take `CC(=O)CC(=O)Nc1ccc(Cl)c(C(F)(F)F)c1` [compound 6094911, N-[4-chloro-3-(trifluoromethyl)phenyl]-3-oxobutanamide]: in test [1] (PPC-1 cells), the direct toxicity entry was “little direct toxicity”. Also, the “tumor cell lines sensitized to CH-11” value in test [2] is “sensitized four of ten tumor cell lines to CH-11; also recorded: sensitizing 4 of 10 tumor lines; also recorded: enhanced FAS-induced killing of several tumor cell lines”. In test [3], the “sensitization to extrinsic versus intrinsic pathway stimuli” value was “confirming that the results are not unique to PPC-1 cells”.

Take `O=C(CCCOc1ccc(Cl)cc1Cl)NO` [compound 5809354, 4-(2,4-dichlorophenoxy)-N-hydroxybutanamide]: the “enhancement of CH-11-mediated killing in the presence of FLIP siRNA” value in test [4] is listed as “the longer enhanced CH-11-mediated killing”. Further, the direct toxicity entry in test [1] (PPC-1 cells) was “little direct toxicity”. Also, the “tumor cell lines sensitized to CH-11” value in test [2] was “sensitized the same tumor lines with the exception of HT29”. Besides, the “sensitization to extrinsic versus intrinsic pathway stimuli” value in test [3] was “confirming that the results are not unique to PPC-1 cells”.

For `CCn1c(=N)n(CC(=O)c2cc(C(C)(C)C)c(O)c(C(C)(C)C)c2)c2ccccc21` [compound 5569100, 1-(3,5-Di-tert-butyl-4-hydroxy-phenyl)-2-(3-ethyl-2-imino-2,3-dihydro-benzoimidazol-1-yl)-ethanone], the EC50 in test [1] (Homo sapiens, PPC-1, PPC1 cells with anti-FAS antibody, read-out: EC50 as a FAS-sensitizer in PPC1 cells) was 5.6 µM. Besides, in test [1] (PPC1 cells), the “potency as a FAS-sensitizer relative to 5541203” value is on record as “approximately 5 times”. The “toxicity when added alone relative to 5541203” value in test [1] (PPC1 cells, without anti-FAS antibody) is “three times more toxic”. The “synergy with CH-11, median-dose combination index (CI)” value in test [1] (PPC-1 cells, combined with CH-11) is given as “did not demonstrate synergy”. In addition, in test [3], the “sensitization to extrinsic versus intrinsic pathway stimuli” value is on record as “confirming that the results are not unique to PPC-1 cells”.

Source of the values: US20080206287A1, “Use of cyclosporin A to sensitize resistant cancer cells to death receptor ligands” (priority 2006, published 2008).
